Measurements reported in patent US12115167B2 (Woolsey Pharmaceuticals, Inc., priority 2022, dated 2024).
Counter-ions that a name gives are not always drawn.

Assay: Stability of fasudil in 0.05M citrate buffer with and without EDTA, 60° C. for 36 days
Format: physicochemical
Details: 60° C. 36 days, in words
Protocol: Samples were stored at 60° C. for 36 days.

Structure (SMILES): O=S(=O)(c1cccc2cnccc12)N1CCCNCC1 [fasudil, hexahydro-1-(5-isoquinolinesulfonyl)-1H-1,4-diazepine monohydrochloride hemihydrate]
- compatibility with EDTA: compatible with EDTA in citrate buffer
